In brackets after ≈: the same amount, converted by molar mass. Entries after “also recorded” stand apart in the source; their conditions may differ. Read-outs that look alike come from different tables or passages of the source. Blank lines part the entries; values can stand above or below the compound they belong to.
Assays:
[1] = test system: murine P388 lymphocytic leukemia (PS system); experiment: inhibition of PS cell line growth (Ed50); type: cell-based; details: for IC50: Mus musculus
[2] = test system: murine P388 lymphocytic leukemia (PS system); experiment: PS in vivo life extension; details: 2.75-11 mg/kg dose levels
[3] = test system: tubulin; experiment: microtubule assembly (turbidimetric); type: biochemical; details: for IC50: Experiment I; for inhibition of microtubule assembly / tubulin polymerization in words: comparison with reference agents
Protocol: (§1) The assembly reaction at 37° C. was followed turbidimetrically as described by Hamel et al, Biochem. Pharmacal., 32, p.

[4] = test system: tubulin; experiment: binding of [3H]colchicine to tubulin; details: Experiment II; for colchicine binding, % of control: 5 μM [3H]colchicine, competing drug at 5 μM, 10 minutes at 37° C.
Protocol: (§2) Incubation was for 10 minutes at 37° C.

[5] = test system: tubulin; experiment: in vitro interactions with tubulin (overall comparison); type: biochemical
Protocol: as §1, §2

[6] = test system: NCI astrocytoma; experiment: NCI astrocytoma bioassay; type: cell-based
[7] = test system: tubulin; details: cited from earlier work
[8] = read-out: concentration giving equivalent inhibition of microtubule assembly
[9] = read-out: ID50, drug concentration inhibiting the extent of microtubule assembly by 50%, 37° C., 1.5 mg/ml tubulin, 0.5 mg/ml microtubule-associated proteins

SMILES: COc1cc(/C=C\c2ccc(OC)c(OC(C)=O)c2OC(C)=O)cc(OC)c1OC [Combretastatin A-1 d lacerate, 2', 3'-diacetoxy-4'-methoxy-Z-combretastatin A-1]
- IC50 ([1]; P388 (PS) cell line): 2.7 µg/mL (≈ 6.48 µM)
- activity relative to parent natural product combretastatin A-1 ([1]; PS cell line): three-fold less active

SMILES: COc1ccc(/C=C\c2cc(OC)c(OC)c(OC)c2)c(O)c1O [Combretastatin A-1]
- increase in life extension [2]: 26-29%
- IC50 [3, 8]: 2000 nM
- inhibition of microtubule assembly / tubulin polymerization in words [3]: more potent than combretastatin and the well known tubulin inhibitors colchicine and podophylotoxin
- inhibition of microtubule assembly / tubulin polymerization in words ([3]; listed as combretastatins A-1): comparable to that observed with podophyllotoxin and greater than that observed with colchicine and steganacin
- concentration completely inhibiting microtubulin assembly in vitro ([3]; complete inhibition): less than 1.5 μmolar
- inhibition of binding of (3H)colchicine to tubulin in words [4]: particularly potent
- colchicine binding, % of control [4]: 2.2 % of control
- IC50 ([1]; P388 (PS) cell line): 0.99 µg/mL (≈ 2.98 µM)
- interactions with tubulin in words [5]: more active than combretastatin B-1; also recorded: significantly more potent than the previously described combretastatin

SMILES: COc1ccc(/C=C\c2cc(OC)c3c(c2)OCO3)cc1O [Combretastatin A-2]
- IC50 ([1]; P388 (PS) cell line): 0.027 µg/mL (≈ 0.0899 µM)

SMILES: COc1ccc(/C=C\c2cc(O)c(OC)c(OC)c2)cc1O [Combretastatin A-3]
- IC50 ([1]; P388 (PS) cell line): 0.026 µg/mL (≈ 0.086 µM)

SMILES: COc1cc([C@@H]2c3cc4c(cc3[C@H](O)[C@H]3COC(=O)[C@H]23)OCO4)cc(OC)c1OC [Podophyllotoxin, reference compound]
- colchicine binding, % of control [4]: 13 % of control
- mode of inhibition of binding of radiolabeled colchicine [7]: competitive inhibitors

SMILES: COc1cc2c(c(OC)c1OC)-c1cc3c(cc1C(OC(C)=O)[C@H]1COC(=O)[C@@H]1C2)OCO3 (stereo partly drawn) [Steganacin, reference compound]
- IC50 [3, 9]: 6000 nM
- colchicine binding, % of control [4]: 49 % of control
- mode of inhibition of binding of radiolabeled colchicine [7]: competitive inhibitors

SMILES: COc1cc(/C=C/c2ccc(OC)c(OC(C)=O)c2OC(C)=O)cc(OC)c1OC [trans-isomer counter part, 2',3'-diacetoxy-4'-methoxy-E-combretastatin A-1]
- IC50 ([1]; P388 (PS) cell line): 12 µg/mL (≈ 28.8 µM)
- PS cell line activity in words ([1]; P388 (PS) cell line): essentially inactive

Further lines, with some results ahead:

- IC50 ([1]; P388 (PS) cell line): 1.7 µg/mL (≈ 5.9 µM)
SMILES: COc1cc(CCc2ccc(OC)c(O)c2)cc(OC)c1 [3'-hydroxy-3,4',5-trimethoxy bibenzyl]

- IC50 ([1]; P388 (PS) cell line): 0.25 µg/mL (≈ 0.867 µM)
SMILES: COc1cc(CCc2ccc(O)cc2)cc(OC)c1OC [4'-hydroxy-3,4,5-trimethoxy bibenzyl]

- IC50 [3, 8]: 3000 nM
- inhibition of binding of (3H)colchicine to tubulin in words [4]: particularly potent
- colchicine binding, % of control [4]: 13 % of control
- IC50 ([1]; P388 (PS) cell line): 1.7 µg/mL (≈ 5.08 µM)
SMILES: COc1ccc(CCc2cc(OC)c(OC)c(OC)c2)c(O)c1O [Combretastatin B-1]
- inhibition of microtubule assembly / tubulin polymerization in words [3]: comparable to that observed with podophyllotoxin and greater than that observed with colchicine and steganacin
- interactions with tubulin in words [5]: significantly more potent than the previously described combretastatin

- IC50 ([1]; P388 (PS) cell line): 0.32 µg/mL (≈ 1.05 µM)
SMILES: COc1ccc(CCc2cc(O)c(OC)c(OC)c2)cc1O [Combretastatin B-2]

- IC50 ([1]; P388 (PS) cell line): 0.4 µg/mL (≈ 1.31 µM)
SMILES: COc1cc(CCc2ccc(O)c(O)c2)cc(OC)c1OC [Combretastatin B-3]

- IC50 ([1]; P388 (PS) cell line): 1.7 µg/mL (≈ 6.2 µM)
SMILES: COc1cc(CCc2ccc(O)c(O)c2)cc(OC)c1 [Combretastatin B-4]

- IC50 [3, 8]: 11000 nM
- colchicine binding, % of control [4]: 34 % of control
SMILES: COc1ccc(C[C@@H](O)c2cc(OC)c(OC)c(OC)c2)cc1O [Combretastatin, R(-)-1-(3,4,5-tri-methoxyphenyl)-2-(3'-hydroxy, 4'-methoxyphenyl)-ethanol]
- astrocyte reversal [6]: pronounced astrocyte reversal
- mode of inhibition of binding of radiolabeled colchicine [7]: competitive inhibitors
